Test results as given in patent US20240270762A1, “PENICILLIN-BINDING PROTEIN INHIBITORS” (priority 2021, published 2024).
≈ marks a conversion by molar mass, not a printed value.

Key:
[1] = target: T1, PBP1a from Acinetobacter baumannii (ATCC 19606) (Acinetobacter baumannii, UniProt A0ABX6CK30); test: Bocillin-FL fluorescence polarization competition binding, A. baumannii PBP1a; settings: fluorescence polarization competition binding assay using Bocillin-FL; read-out: A. baumannii PBP1a Potency
T1 sequence (A0ABX6CK30 1-851): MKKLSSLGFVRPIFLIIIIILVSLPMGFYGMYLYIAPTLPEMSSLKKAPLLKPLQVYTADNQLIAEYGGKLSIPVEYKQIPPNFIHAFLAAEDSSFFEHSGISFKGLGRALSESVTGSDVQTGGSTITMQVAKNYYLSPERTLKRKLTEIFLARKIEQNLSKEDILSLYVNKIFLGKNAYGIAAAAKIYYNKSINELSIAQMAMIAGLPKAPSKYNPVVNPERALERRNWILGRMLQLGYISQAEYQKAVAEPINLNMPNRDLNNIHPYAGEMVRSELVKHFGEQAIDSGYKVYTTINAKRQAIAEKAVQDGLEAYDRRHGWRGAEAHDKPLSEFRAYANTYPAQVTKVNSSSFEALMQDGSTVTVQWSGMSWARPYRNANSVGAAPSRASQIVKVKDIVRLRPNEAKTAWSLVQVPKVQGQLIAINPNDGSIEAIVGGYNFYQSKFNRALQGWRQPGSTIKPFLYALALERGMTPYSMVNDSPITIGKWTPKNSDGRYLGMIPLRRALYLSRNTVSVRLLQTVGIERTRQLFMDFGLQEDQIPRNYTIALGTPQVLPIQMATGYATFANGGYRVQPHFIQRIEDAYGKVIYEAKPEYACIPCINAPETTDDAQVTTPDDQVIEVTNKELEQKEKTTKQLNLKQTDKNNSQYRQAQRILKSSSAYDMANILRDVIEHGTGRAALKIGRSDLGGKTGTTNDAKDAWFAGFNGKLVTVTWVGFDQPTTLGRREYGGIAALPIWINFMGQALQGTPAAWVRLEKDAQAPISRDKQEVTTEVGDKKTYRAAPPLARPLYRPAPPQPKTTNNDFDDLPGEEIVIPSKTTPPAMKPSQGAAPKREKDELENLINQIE
Method in brief: (§1)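 Purified PBP was preincubated with inhibitor (E. coli PBP3 1.5 μM, 30 min; P. aeruginosa PBP3 0.75 μM, A. baumannii PBP3 0.2 μM and PBP1a 1 μM, 15 min), then Bocillin-FL (0.1 μM; 0.05 μM for PBP1a) added and FP read up to 60 min. EC50 = 50% loss of bound probe.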

[2] = target: T2, PBP3 from Acinetobacter baumannii (ATCC 19606) (Acinetobacter baumannii, UniProt A0ABX6CK25); test: Bocillin-FL fluorescence polarization competition binding, A. baumannii PBP3; settings: fluorescence polarization competition binding assay using Bocillin-FL; read-out: A. baumannii PBP3 Potency
T2 sequence (A0ABX6CK25 64-610): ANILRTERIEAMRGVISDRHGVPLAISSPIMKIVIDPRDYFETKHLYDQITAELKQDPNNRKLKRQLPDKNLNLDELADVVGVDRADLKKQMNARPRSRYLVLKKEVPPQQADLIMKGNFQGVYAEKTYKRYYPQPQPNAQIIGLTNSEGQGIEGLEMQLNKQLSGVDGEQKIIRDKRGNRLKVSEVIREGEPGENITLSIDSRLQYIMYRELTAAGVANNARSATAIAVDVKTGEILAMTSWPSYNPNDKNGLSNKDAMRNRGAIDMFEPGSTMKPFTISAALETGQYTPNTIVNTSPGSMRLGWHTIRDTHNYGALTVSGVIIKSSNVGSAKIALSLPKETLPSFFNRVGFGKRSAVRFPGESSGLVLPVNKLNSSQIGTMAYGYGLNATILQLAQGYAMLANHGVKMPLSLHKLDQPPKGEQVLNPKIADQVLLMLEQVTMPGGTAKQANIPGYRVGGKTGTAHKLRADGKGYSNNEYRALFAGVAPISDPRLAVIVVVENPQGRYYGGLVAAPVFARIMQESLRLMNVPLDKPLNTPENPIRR
Method in brief: as §1

A. baumannii ATCC 17978 = test: microbe, parasite or virus in culture; format: cell-based; settings: Acinetobacter baumannii, ATCC17978, read-out: MIC, A. baumannii ATCC 17978

Compound | IC50 [1] [µM] | IC50 [2] [µM] | MIC (A. baumannii ATCC 17978) [µg/mL]
CN(CCN1CCN(C(=O)N[C@@H](C(=O)N[C@H]2Cc3ccc(F)c(C(=O)O)c3OB2O)c2cc(F)c(O)c(O)c2Cl)C(=O)C1=O)Cc1cccc(C(N)=O)c1 [Example 225, (R)-3-((R)-2-(4-(2-((3-carbamoylbenzyl)(methyl)amino)ethyl)-2,3-dioxopiperazine-1-carboxamido)-2-(2-chloro-5-fluoro-3,4-dihydroxyphenyl)acetamido)-7-fluoro-2-hydroxy-3,4-dihydro-2H-benzo[e][1,2]oxaborinine-8-carboxylic acid] | > 250 | < 10 | < 1
CN(CCN1CCN(C(=O)N[C@@H](C(=O)N[C@H]2Cc3ccc(F)c(C(=O)O)c3OB2O)c2cc(F)c(O)c(O)c2Cl)C(=O)C1=O)Cc1ccc(C(N)=O)cc1 [Example 226, (R)-3-((R)-2-(4-(2-((4-carbamoylbenzyl)(methyl)amino)ethyl)-2,3-dioxopiperazine-1-carboxamido)-2-(2-chloro-5-fluoro-3,4-dihydroxyphenyl)acetamido)-7-fluoro-2-hydroxy-3,4-dihydro-2H-benzo[e][1,2]oxaborinine-8-carboxylic acid] | > 250 | < 10 | < 1
O=C(NCCCN1CCN(C(=O)NC(C(=O)N[C@H]2Cc3ccc(F)c(C(=O)O)c3OB2O)c2cc(F)c(O)c(O)c2Cl)C(=O)C1=O)Nc1ccc(O)cc1 (stereo partly drawn) [Example 227, (3R)-3-(2-(2-chloro-5-fluoro-3,4-dihydroxyphenyl)-2-(4-(3-(3-(4-hydroxyphenyl)ureido)propyl)-2,3-dioxopiperazine-1-carboxamido)acetamido)-7-fluoro-2-hydroxy-3,4-dihydro-2H-benzo[e][1,2]oxaborinine-8-carboxylic acid] | > 250 | < 10 | < 1
O=C(NCCCN1CCN(C(=O)NC(C(=O)N[C@H]2Cc3ccc(F)c(C(=O)O)c3OB2O)c2cc(F)c(O)c(O)c2Cl)C(=O)C1=O)Nc1ccncc1 (stereo partly drawn) [Example 228, (3R)-3-(2-(2-chloro-5-fluoro-3,4-dihydroxyphenyl)-2-(2,3-dioxo-4-(3-(3-(pyridin-4-yl)ureido)propyl)piperazine-1-carboxamido)acetamido)-7-fluoro-2-hydroxy-3,4-dihydro-2H-benzo[e][1,2]oxaborinine-8-carboxylic acid] | > 250 | < 10 | < 1
O=C(O)c1c(F)ccc2c1OB(O)[C@@H](NC(=O)[C@H](NC(=O)N1CCN(CCNC(=O)[C@@H]3CCCN3)C(=O)C1=O)c1cc(F)c(O)c(O)c1Cl)C2 [Example 229, (R)-3-((R)-2-(2-chloro-5-fluoro-3,4-dihydroxyphenyl)-2-(2,3-dioxo-4-(2-((S)-pyrrolidine-2-carboxamido)ethyl)piperazine-1-carboxamido)acetamido)-7-fluoro-2-hydroxy-3,4-dihydro-2H-benzo[e][1,2]oxaborinine-8-carboxylic acid] | > 250 | < 10 | < 1
O=C(CN1CCN(C(=O)NC(C(=O)N[C@H]2Cc3ccc(F)c(C(=O)O)c3OB2O)c2cc(F)c(O)c(O)c2Cl)C(=O)C1=O)Nc1ccc(O)cc1 (stereo partly drawn) [Example 230, (3R)-3-(2-(2-chloro-5-fluoro-3,4-dihydroxyphenyl)-2-(4-(2-((4-hydroxyphenyl)amino)-2-oxoethyl)-2,3-dioxopiperazine-1-carboxamido)acetamido)-7-fluoro-2-hydroxy-3,4-dihydro-2H-benzo[e][1,2]oxaborinine-8-carboxylic acid] | > 250 | < 10 | < 1
O=C(CN1CCN(C(=O)NC(C(=O)N[C@H]2Cc3ccc(F)c(C(=O)O)c3OB2O)c2cc(F)c(O)c(O)c2Cl)C(=O)C1=O)Nc1cccc(O)c1 (stereo partly drawn) [Example 231, (3R)-3-(2-(2-chloro-5-fluoro-3,4-dihydroxyphenyl)-2-(4-(2-((3-hydroxyphenyl)amino)-2-oxoethyl)-2,3-dioxopiperazine-1-carboxamido)acetamido)-7-fluoro-2-hydroxy-3,4-dihydro-2H-benzo[e][1,2]oxaborinine-8-carboxylic acid] | > 250 | < 10 | < 1
O=C(CN1CCN(C(=O)NC(C(=O)N[C@H]2Cc3ccc(F)c(C(=O)O)c3OB2O)c2cc(F)c(O)c(O)c2Cl)C(=O)C1=O)Nc1ccccc1 (stereo partly drawn) [Example 232, (3R)-3-(2-(2-chloro-5-fluoro-3,4-dihydroxyphenyl)-2-(2,3-dioxo-4-(2-oxo-2-(phenylamino)ethyl)piperazine-1-carboxamido)acetamido)-7-fluoro-2-hydroxy-3,4-dihydro-2H-benzo[e][1,2]oxaborinine-8-carboxylic acid] | > 250 | < 10 | 2 to 4 (≈ 2.79 to 5.59 µM)
O=C(CN1CCN(C(=O)NC(C(=O)N[C@H]2Cc3ccc(F)c(C(=O)O)c3OB2O)c2cc(F)c(O)c(O)c2Cl)C(=O)C1=O)Nc1ccncc1 (stereo partly drawn) [Example 233, (3R)-3-(2-(2-chloro-5-fluoro-3,4-dihydroxyphenyl)-2-(2,3-dioxo-4-(2-oxo-2-(pyridin-4-ylamino)ethyl)piperazine-1-carboxamido)acetamido)-7-fluoro-2-hydroxy-3,4-dihydro-2H-benzo[e][1,2]oxaborinine-8-carboxylic acid] | > 250 | < 10 | < 1
O=C(CN1CCN(C(=O)NC(C(=O)N[C@H]2Cc3ccc(F)c(C(=O)O)c3OB2O)c2cc(F)c(O)c(O)c2Cl)C(=O)C1=O)Nc1cccnc1 (stereo partly drawn) [Example 234, (3R)-3-(2-(2-chloro-5-fluoro-3,4-dihydroxyphenyl)-2-(2,3-dioxo-4-(2-oxo-2-(pyridin-3-ylamino)ethyl)piperazine-1-carboxamido)acetamido)-7-fluoro-2-hydroxy-3,4-dihydro-2H-benzo[e][1,2]oxaborinine-8-carboxylic acid] | > 250 | < 10 | < 1
O=C(CN1CCN(C(=O)NC(C(=O)N[C@H]2Cc3ccc(F)c(C(=O)O)c3OB2O)c2cc(F)c(O)c(O)c2Cl)C(=O)C1=O)Nc1nccs1 (stereo partly drawn) [Example 235, (3R)-3-(2-(2-chloro-5-fluoro-3,4-dihydroxyphenyl)-2-(2,3-dioxo-4-(2-oxo-2-(thiazol-2-ylamino)ethyl)piperazine-1-carboxamido)acetamido)-7-fluoro-2-hydroxy-3,4-dihydro-2H-benzo[e][1,2]oxaborinine-8-carboxylic acid] | > 250 | < 10 | < 1
O=C(CN1CCN(C(=O)NC(C(=O)N[C@H]2Cc3ccc(F)c(C(=O)O)c3OB2O)c2cc(F)c(O)c(O)c2Cl)C(=O)C1=O)NCc1ccc(O)cc1 (stereo partly drawn) [Example 236, (3R)-3-(2-(2-chloro-5-fluoro-3,4-dihydroxyphenyl)-2-(4-(2-((4-hydroxybenzyl)amino)-2-oxoethyl)-2,3-dioxopiperazine-1-carboxamido)acetamido)-7-fluoro-2-hydroxy-3,4-dihydro-2H-benzo[e][1,2]oxaborinine-8-carboxylic acid] | > 250 | < 10 | < 1
O=C(CN1CCN(C(=O)NC(C(=O)N[C@H]2Cc3ccc(F)c(C(=O)O)c3OB2O)c2cc(F)c(O)c(O)c2Cl)C(=O)C1=O)NCc1cccc(O)c1 (stereo partly drawn) [Example 237, (3R)-3-(2-(2-chloro-5-fluoro-3,4-dihydroxyphenyl)-2-(4-(2-((3-hydroxybenzyl)amino)-2-oxoethyl)-2,3-dioxopiperazine-1-carboxamido)acetamido)-7-fluoro-2-hydroxy-3,4-dihydro-2H-benzo[e][1,2]oxaborinine-8-carboxylic acid] | > 250 | < 10 | < 1
